Test results published in US20180271863A1, “TARGETING P2 PURINERGIC RECEPTORS TO TREAT HEPATOCELLULAR CARCINOMA (HCC)” (Baylor College of Medicine, priority 2015, published 2018).

Tests used:
Assay type in all cases: cell-based, human
Huh7 cells [1] = assay: Western blotting for cleaved PARP (apoptosis marker); conditions: antagonist treatment alone
From the text: Arrows point to BrdU-positive cells, expressed as a percentage of total cells. Data represents mean±SEM, n=3-6, *p<0.05 vs. untreated. […] Data represents mean±SD, n=3, *p<0.05 vs. untreated, #p<0.05.
Applicants' observations that P2X3 agonist 2-MeSATP treatment alone was sufficient to induce cyclin D3 expression (1.9 fold) and pre-treatment with an alternative P2X3 antagonist (A317491) attenuated ATP induced cyclin D3 expression in Huh7 cells further validated the role of P2X3 purinergic receptor activation in the induction of cell-cycle progression in HCC cells (FIGS. 11C-D). Furthermore, P2X3 antagonist treatment alone was sufficient to reduce the baseline BrdU-positive cells and cyclin protein expression in serum-free conditions, implicating P2X3 activation as a necessary facilitator of Huh7 cell cycle progression (FIGS. 11A-B).
Total protein extracts were obtained by homogenizing cells in total lysis buffer (50 mM Tris-HCl, pH 7.5, 0.5 M NaCl, 2 mM EGTA, 2 mM EDTA, 1.0% Triton X-100, 0.25% Deoxycholate, 1 m/ml pepstatin, 1.0 m/ml leupeptin, 1.0 m/ml aprotinin, 1.0 mM phenylmethylsulfonyl fluoride, 1.0 mM Dithiothreitol, 2.0 mM activated Na3VO4, and 2.0 mM NaF) and centrifuging at 14,000 rpm for 10 min (4° C.). Equal amounts of total proteins as determined by BCA protein Assay (Pierce, Rockford, Ill.) were analyzed by Western blotting. […]

Huh7 cells [2] = assay: Western blotting for JNK phosphorylation in Huh7 cells; conditions: 100 μM, 15 min
Method: Applicants have previously shown that extracellular nucleotide-mediated activation of JNK signaling induces cell-cycle progression and proliferation of rat primary hepatocytes in vitro. To determine whether extracellular nucleotides induce JNK signaling in transformed hepatocytes, Huh7 cells were treated with nucleotides for 5, 15 and 30 min and total protein extracts were analyzed by Western blotting for JNK phosphorylation (Ser^Thr/Tyi). ATPγS treatment alone was sufficient to induce JNK phosphorylation as early as 15 min (1.7 fold) (FIG. 10A). […] Total protein extracts were obtained by homogenizing cells in total lysis buffer (50 mM Tris-HCl, pH 7.5, 0.5 M NaCl, 2 mM EGTA, 2 mM EDTA, 1.0% Triton X-100, 0.25% Deoxycholate, 1 m/ml pepstatin, 1.0 m/ml leupeptin, 1.0 m/ml aprotinin, 1.0 mM phenylmethylsulfonyl fluoride, 1.0 mM Dithiothreitol, 2.0 mM activated Na3VO4, and 2.0 mM NaF) and centrifuging at 14,000 rpm for 10 min (4° C.). Equal amounts of total proteins as determined by BCA protein Assay (Pierce, Rockford, Ill.) were analyzed by Western blotting. Blots were probed with antibody specific for a-tubulin or GAPDH to ensure equal loading of proteins in each lane.

SNU-387 cells = assay: BrdU incorporation (proliferation) in SNU-387 cells; conditions: SFM 24 hours, ATP 24 hours
Method: To determine whether P2 purinergic receptor activation influences HCC cell proliferation, BrdU incorporation was assessed in HCC cells maintained in SFM for 24 hours and treated with ATP for 24 hours. ATP treatment alone was sufficient to induce proliferation in each of these cell lines (Huh7, 34%; Hep3B, 46%; SNU-387, 47% and PLC/PRF/5, 24%), identifying nucleotides as liver cancer cell mitogens (FIG. 7A).
Normal human primary hepatocytes isolated from healthy adults (no known history of HCC) in suspension or freshly-frozen prior to shipment (Cryoport Systems, CA) were purchased from Triangle Research Labs, NC. Fresh hepatocytes were plated on collagen-coated tissue culture plates or glass coverslips in Williams E complete media with additives (10% fetal bovine serum, 2 mM glutamine, […] insulin, 4 ng/ml glucagon, […] transferrin, 2.5 ng/ml sodium selenite, 10,000 U/ml penicillin, […] streptomycin, 50 g/ml gentamycin) for 3 h to ensure hepatocyte adherence to plates. […]
Formalin-fixed and paraffin embedded liver sections from HCC patients were analyzed by immunohistochemistry with anti-P2X3 antibody (Abcam, Cambridge, Mass.). […] BrdU positive cells were counted and expressed as a percentage of the total number of cells in ten randomly selected high-power fields (20×) per coverslips.

## COc1cc(C(C)C)c(Oc2cnc(N)nc2N)cc1I [AF-353]
Huh7 cells [1]
  cleaved PARP protein expression (marker of apoptosis): increased

## Nc1ncnc2c1ncn2[C@@H]1O[C@H](COP(=O)(O)OP(=O)(O)OP(O)(O)=S)[C@@H](O)[C@H]1O [ATPγS]
Huh7 cells [2]
  JNK phosphorylation: 1.7 fold

## Nc1ncnc2c1ncn2[C@@H]1O[C@H](COP(=O)(O)OP(=O)(O)OP(=O)(O)O)[C@@H](O)[C@H]1O [ATP]
SNU-387 cells
  proliferation (BrdU incorporation) induced by ATP: 47%
